Measurements published in patent publication US20110190267A1, “PRODRUGS OF OPIOIDS AND USES THEREOF” (priority 2010, published 2011).
Values joined by “and” are separate entries in the source; they are usually repeats but may differ in a detail not shown here. Identical values can stand only once.

Key:
[1] = target: T1, Acetylcholinesterase (h), human recombinant (HEK-293 cells) (Homo sapiens, UniProt P22303); assay: Human acetylcholine esterase inhibition (Example 31); type: biochemical; settings: AMTCh 50 μM, 30 min./37° C., photometry; read-out: apparent IC50
T1 construct: host or cells: HEK-293 cells
Protocol: The results are expressed as a percent of control specific activity ((measured specific activity/control specific activity)×100) obtained in the presence of the test compounds.
The IC50 values (concentration causing a half-maximal inhibition of control specific activity), and Hill coefficients (nh) were determined by non-linear regression analysis of the inhibition curves generated with mean replicate values using hill equation curve fitting (y=d+[(a−d)/(1+(c/c50)^nh)], where y=specific activity, d=minimum specific activity, a=maximum specific activity, c=compound concentration, C50=IC50, and nh=slope factor).
This analysis was performed using software developed at Cerep (Hill software) and validated by comparison with data generated by the commercial software Sigmaplot® 4.0 for Windows®.

[2] = Pharmacokinetics of meptazinol or meptazinol PABA carbamate, dogs (Example 27); type: in vivo, dog; settings: for Vd: read-out: Vss; for Fabs: meptazinol
Description: The results are given in Tables 8 to 11 and shown graphically in FIG. 2.

[3] = Norbury et al. (1983); cited from earlier work
[4] = Pharmacokinetics of meptazinol or meptazinol PABA carbamate, monkeys (Example 29); type: in vivo, monkey; settings: for AUC / C0 / t½ / Cmax / T>50%Cmax / Tmax / half-life: meptazinol in plasma; for Fabs: meptazinol; for Vd: read-out: Vss; for half-life: read-out: t½ (converted)
Description: The results are given in Tables 15 to 18 and shown graphically in FIG. 4.

[5] = Pharmacokinetics of meptazinol or meptazinol PABA carbamate, rats (Example 30); settings: for Fabs: meptazinol; for clearance: CL; for Vd: Vss
Protocol: Blood samples were taken at various times after administration and submitted to analysis for the parent drug and pro-drug using a validated LC-MS-MS assay. Pharmacokinetic parameters derived from the plasma analytical data were determined using Win Nonlin.

[6] = Pharmacokinetics of meptazinol from PABA analogue prodrugs, dogs (Example 26); type: in vivo; settings: dog, plasma, po, 1 mg/kg
Protocol: (§1) Blood samples were taken at various times after administration and submitted to analysis for the parent drug and prodrug using a validated LC-MS-MS assay. Pharmacokinetic parameters derived from the plasma analytical data were determined using Win Nonlin.

[7] = Pharmacokinetics of meptazinol from PABA analogue prodrugs, monkeys (Example 26); type: in vivo; settings: monkey, plasma, po, 2 mg/kg
Protocol: as §1

[8] = dog, plasma, iv, 1 mg/kg, iv meptazinol 1 mg free base equivalents/kg, individual animals
[9] = dog, plasma, iv, 1 mg/kg, iv meptazinol 1 mg free base equivalents/kg, mean
[10] = iv meptazinol 1 mg free base equivalents/kg, individual animals
[11] = meptazinol in plasma, oral meptazinol 1 mg free base equivalents/kg, individual animals
[12] = meptazinol in plasma, oral meptazinol 1 mg free base equivalents/kg, mean
[13] = oral meptazinol 10 mg free base equivalents/kg, individual animals
[14] = oral meptazinol 10 mg free base equivalents/kg, mean
[15] = monkey, plasma, iv, 1 mg/kg, iv meptazinol 1 mg free base equivalents/kg, individual animals
[16] = monkey, plasma, iv, 1 mg/kg, iv meptazinol 1 mg free base equivalents/kg, mean
[17] = iv meptazinol 1 mg free base equivalents/kg, rats, individual animals
[18] = meptazinol in plasma, iv meptazinol 1 mg free base equivalents/kg, rats, individual animals
[19] = meptazinol in plasma, oral meptazinol 1 mg free base equivalents/kg, rats, individual animals
[20] = rat, plasma, iv, 1 mg/kg, iv meptazinol 1 mg free base equivalents/kg, rats, individual animals
[21] = rat, plasma, iv, 1 mg/kg, iv meptazinol 1 mg free base equivalents/kg, rats, mean
[22] = read-out: AUC* (mean ngh/mL), AUC0-t

T1 sequence (P22303 32-614): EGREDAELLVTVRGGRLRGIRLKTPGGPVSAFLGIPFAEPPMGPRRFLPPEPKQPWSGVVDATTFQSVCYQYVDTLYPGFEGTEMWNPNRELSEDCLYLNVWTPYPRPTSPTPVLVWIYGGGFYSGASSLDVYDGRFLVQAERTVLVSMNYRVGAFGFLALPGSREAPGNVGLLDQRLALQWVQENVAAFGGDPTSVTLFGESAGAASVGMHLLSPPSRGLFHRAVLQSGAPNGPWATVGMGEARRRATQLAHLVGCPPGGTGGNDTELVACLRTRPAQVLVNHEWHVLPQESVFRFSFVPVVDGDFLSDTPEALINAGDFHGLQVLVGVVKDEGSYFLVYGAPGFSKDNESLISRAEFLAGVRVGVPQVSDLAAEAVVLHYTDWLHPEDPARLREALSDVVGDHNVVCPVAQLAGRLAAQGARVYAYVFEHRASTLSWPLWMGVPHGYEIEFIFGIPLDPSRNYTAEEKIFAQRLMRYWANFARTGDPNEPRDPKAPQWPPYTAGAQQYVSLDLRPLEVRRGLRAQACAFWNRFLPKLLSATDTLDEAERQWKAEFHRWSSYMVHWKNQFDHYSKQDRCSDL

CCC1(c2cccc(O)c2)CCCCN(C)C1 (stereo not shown) [meptazinol]
IC50 [1]: 1500 nM | clearance [2, 8]: 67.3 mL/min/kg | Vd [2, 8]: 4.14 L | clearance [2, 9]: 62.7 mL/min/kg | Vd [2, 9]: 3.55 L | AUC ([2]; dog, plasma, iv, 1 mg/kg, meptazinol in plasma, iv meptazinol 1 mg free base equivalents/kg, individual animals, read-out: AUC): 247 ng·h/mL | AUC ([2]; dog, plasma, iv, 1 mg/kg, meptazinol in plasma, iv meptazinol 1 mg free base equivalents/kg, mean, read-out: AUC): 269 ng·h/mL | Cmax ([2]; dog, plasma, po, 1 mg/kg, meptazinol in plasma, oral meptazinol 1 mg free base equivalents/kg, individual animals, read-out: Cmax): 4.22 ng/mL | AUC ([2]; dog, plasma, po, 1 mg/kg, meptazinol in plasma, oral meptazinol 1 mg free base equivalents/kg, mean, read-out: AUC): 15.6 ng·h/mL | half-life ([2]; dog, plasma, po, 1 mg/kg, meptazinol in plasma, oral meptazinol 1 mg free base equivalents/kg, mean, read-out: t½ (converted)): 108 min | CL [2, 10]: 60.8 mL/min/kg and 57.2 mL/min/kg and 54.5 mL/min/kg and 73.3 mL/min/kg | Co ([2]; meptazinol in plasma, iv meptazinol 1 mg free base equivalents/kg, individual animals): 340 ng/mL and 308 ng/mL and 350 ng/mL and 402 ng/mL and 477 ng/mL | Co ([2]; meptazinol in plasma, iv meptazinol 1 mg free base equivalents/kg, mean): 375 ng/mL | AUC [2, 11]: 15.1 ng · h/mL and 15.8^b ng · h/mL and 23.3 ng · h/mL and 19.6^b ng · h/mL and 8.52 ng · h/mL | Cmax [2, 11]: 6.82 ng/mL and 6.79 ng/mL and 5.04 ng/mL and 3.52 ng/mL | T>50%Cmax [2, 11]: 2.5 h and 1.1 h and 1.9 h and 2.4 h and 1.8 h | Tmax [2, 11]: 0.5 h and 1 h (2×) | Cmax [2, 12]: 5.28 ng/mL | T>50%Cmax [2, 12]: 1.9 h | Fabs ([2]; oral meptazinol 1 mg free base equivalents/kg, individual animals): 6.1% and 5.8% and 8.0% and 6.4% and 3.8% | Fabs ([2]; oral meptazinol 1 mg free base equivalents/kg, mean): 6.0±2.1% and 6.0% | oral bioavailability [3]: < 10% | CL [4, 10]: 66.2 mL/min/kg and 73.2 mL/min/kg and 77.3 mL/min/kg and 70.3 mL/min/kg | Vss [4, 10]: 4.88 L and 4.11 L and 4.96 L | AUC [4, 10]: 252 ng·h/mL and 228 ng·h/mL and 215 ng·h/mL and 237 ng·h/mL | C0 [4, 10]: 334 ng/mL and 226 ng/mL (2×) and 369 ng/mL | t½ [4, 10]: 49.8 min and 40.8 min and 52.2 min | AUC [4, 13]: 47.7 ng·h/mL and 37.7 ng·h/mL and 38.2 ng·h/mL and 47.8 ng·h/mL | Cmax [4, 13]: 18.3 ng/mL and 19.8 ng/mL and 22.5 ng/mL and 19 ng/mL | T>50%Cmax [4, 13]: 0.9 h and 2.4 h and 1.7 h and 1.4 h and 2.3 h | Tmax [4, 13]: 120 min and 60 min | t½ [4, 13]: 48 min and 54 min and 42 min | T>50%Cmax [4, 14]: 1.7 h | Fabs [4, 13]: 1.6% (3×) and 2.0% (2×) | Fabs [4, 14]: 1.8% | clearance [4, 15]: 73.7 mL/min/kg | Vd [4, 15]: 4.83 L | clearance [4, 16]: 72.2 mL/min/kg | Vd [4, 16]: 4.72 L | AUC ([4]; monkey, plasma, iv, 1 mg/kg, iv meptazinol 1 mg free base equivalents/kg, individual animals, read-out: AUC): 227 ng·h/mL | C0 ([4]; monkey, plasma, iv, 1 mg/kg, iv meptazinol 1 mg free base equivalents/kg, individual animals, read-out: C0): 211 ng/mL | half-life [4, 15]: 48.6 min | AUC ([4]; monkey, plasma, iv, 1 mg/kg, iv meptazinol 1 mg free base equivalents/kg, mean, read-out: AUC): 232 ng·h/mL | C0 ([4]; monkey, plasma, iv, 1 mg/kg, iv meptazinol 1 mg free base equivalents/kg, mean, read-out: C0): 273 ng/mL | half-life [4, 16]: 50.4 min | AUC ([4]; monkey, plasma, po, 10 mg meptazinol free base equivalents/kg, oral meptazinol 10 mg free base equivalents/kg, individual animals, read-out: AUC): 39.4 ng·h/mL | Cmax ([4]; monkey, plasma, po, 10 mg meptazinol free base equivalents/kg, oral meptazinol 10 mg free base equivalents/kg, individual animals, read-out: Cmax): 26.1 ng/mL | half-life ([4]; monkey, plasma, po, 10 mg meptazinol free base equivalents/kg, oral meptazinol 10 mg free base equivalents/kg, individual animals): 60 min | AUC ([4]; monkey, plasma, po, 10 mg meptazinol free base equivalents/kg, oral meptazinol 10 mg free base equivalents/kg, mean, read-out: AUC): 42.2 ng·h/mL | Cmax ([4]; monkey, plasma, po, 10 mg meptazinol free base equivalents/kg, oral meptazinol 10 mg free base equivalents/kg, mean, read-out: Cmax): 21.1 ng/mL | half-life ([4]; monkey, plasma, po, 10 mg meptazinol free base equivalents/kg, oral meptazinol 10 mg free base equivalents/kg, mean): 48 min | Tmax ([4]; monkey, plasma, po, 10 mg meptazinol free base equivalents/kg, oral meptazinol 10 mg free base equivalents/kg, median value, read-out: Tmax): 30 min | CL [5, 17]: 75.2 mL/min/kg and 88.3 mL/min/kg and 89.3 mL/min/kg and 92.2 mL/min/kg | Vss [5, 17]: 4.0 L and 5.4 L (2×) and 5.1 L | AUC [5, 18]: 222 ng·h/mL and 189 ng·h/mL and 187 ng·h/mL and 181 ng·h/mL | C0 [5, 18]: 246 ng/mL and 259 ng/mL and 267 ng/mL and 244 ng/mL | t½ [5, 18]: 36 min and 42 min | AUC* ([5]; meptazinol in plasma, oral meptazinol 1 mg free base equivalents/kg, rats, calculated based on half-life from previous iv study, individual animals): 3.1 ng·h/mL and 2.8 ng·h/mL and 4.9 ng·h/mL | Cmax [5, 19]: 1.12 ng/mL and 1.49 ng/mL and 1.44 ng/mL | t½* [5, 19]: 54 min | Fabs ([5]; oral meptazinol 1 mg free base equivalents/kg, rats, individual animals): 1.6% (2×) and 1.5% and 2.6% | Fabs ([5]; oral meptazinol 1 mg free base equivalents/kg, rats, mean): 1.8±0.5% and 1.8% | AUC ([5]; rat, plasma, iv, 1 mg/kg, AUC, meptazinol in plasma, iv meptazinol 1 mg free base equivalents/kg, rats, individual animals): 161 ng·h/mL | AUC ([5]; rat, plasma, iv, 1 mg/kg, AUC, meptazinol in plasma, iv meptazinol 1 mg free base equivalents/kg, rats, mean): 188 ng·h/mL | C0 ([5]; rat, plasma, iv, 1 mg/kg, C0, meptazinol in plasma, iv meptazinol 1 mg free base equivalents/kg, rats, individual animals): 191 ng/mL | C0 ([5]; rat, plasma, iv, 1 mg/kg, C0, meptazinol in plasma, iv meptazinol 1 mg free base equivalents/kg, rats, mean): 241 ng/mL | clearance [5, 20]: 104 mL/min/kg | clearance [5, 21]: 89.7 mL/min/kg | Vd [5, 20]: 6.8 L | Vd [5, 21]: 5.3 L | half-life ([5]; rat, plasma, iv, 1 mg/kg, t½, meptazinol in plasma, iv meptazinol 1 mg free base equivalents/kg, rats, individual animals): 48 min | half-life ([5]; rat, plasma, iv, 1 mg/kg, t½, meptazinol in plasma, iv meptazinol 1 mg free base equivalents/kg, rats, mean): 42 min | Tmax ([5]; rat, plasma, po, 1 mg/kg): 30 min | AUC ([5]; rat, plasma, po, 1 mg/kg, AUC*, meptazinol in plasma, oral meptazinol 1 mg free base equivalents/kg, rats, calculated based on half-life from previous iv study, individual animals): 2.9 ng·h/mL | AUC ([5]; rat, plasma, po, 1 mg/kg, AUC*, meptazinol in plasma, oral meptazinol 1 mg free base equivalents/kg, rats, calculated based on half-life from previous iv study, mean): 3.4 ng·h/mL | Cmax ([5]; rat, plasma, po, 1 mg/kg, Cmax, meptazinol in plasma, oral meptazinol 1 mg free base equivalents/kg, rats, individual animals): 1.93 ng/mL | Cmax ([5]; rat, plasma, po, 1 mg/kg, Cmax, meptazinol in plasma, oral meptazinol 1 mg free base equivalents/kg, rats, mean): 1.6 ng/mL | half-life ([5]; rat, plasma, po, 1 mg/kg, t½*, meptazinol in plasma, oral meptazinol 1 mg free base equivalents/kg, rats, mean): 78 min | Cmax [6]: 4 ± 5.5 ng/mL | AUC(0-t) [6, 22]: 5.4 ± 5.9 ng·h/mL | Cmax [7]: 1.3 ± 0.3 ng/mL | AUC(0-t) [7, 22]: 3.1 ± 0.7 ng·h/mL
